Experimental data: paper PMC7594025, “Synthesis, Docking, 3-D-Qsar, and Biological Assays of Novel Indole Derivatives Targeting Serotonin Transporter, Dopamine D2 Receptor, and Mao-A Enzyme: In the Pursuit for Potential Multitarget Directed Ligands” (Molecules, 2020)
Read-outs that look alike come from different tables or passages of the source.

What was measured:
rat MAO-A = target: T1, rat MAO-A (Rattus norvegicus, UniProt P21396); assay: MAO-A inhibition, crude rat brain mitochondrial suspension, serotonin substrate, HPLC-ED; format: biochemical; conditions: 100 µM compound; serotonin 100 µM as substrate
T1 construct: using a crude rat brain mitochondrial suspension as a source of enzyme; from tissue; host or cells: rat brain (crude mitochondrial suspension)
T1 sequence (P21396 1-526): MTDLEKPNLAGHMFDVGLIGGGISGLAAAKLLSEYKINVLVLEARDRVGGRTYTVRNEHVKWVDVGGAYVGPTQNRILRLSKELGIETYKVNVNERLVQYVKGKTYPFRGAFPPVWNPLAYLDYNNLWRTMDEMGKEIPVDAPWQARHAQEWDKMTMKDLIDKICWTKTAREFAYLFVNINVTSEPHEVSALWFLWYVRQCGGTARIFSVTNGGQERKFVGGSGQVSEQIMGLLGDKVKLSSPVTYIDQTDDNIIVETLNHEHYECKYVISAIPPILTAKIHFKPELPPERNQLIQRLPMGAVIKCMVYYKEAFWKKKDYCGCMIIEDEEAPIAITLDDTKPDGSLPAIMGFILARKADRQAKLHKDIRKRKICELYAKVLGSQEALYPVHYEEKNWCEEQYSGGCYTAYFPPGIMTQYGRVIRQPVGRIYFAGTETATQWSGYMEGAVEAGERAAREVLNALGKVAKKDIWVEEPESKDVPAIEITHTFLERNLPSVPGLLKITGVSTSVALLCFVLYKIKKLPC
Method: The effects of the compounds on rat MAO-A activity were studied following a previously reported methodology, using a crude rat brain mitochondrial suspension as a source of enzyme. Serotonin (100 µM) was used as the selective substrate for MAO-A. This compound and its metabolite were detected by HPLC with electrochemical detection. As an exploratory evaluation, the percentage of MAO-A inhibition in the presence of 100 µM of the different compounds was determined, with the idea of evaluating in detail those compounds showing an inhibitory activity in the range of 70–100%.

D2 receptor = target: T2, D2 receptor (Homo sapiens, UniProt P14416); assay: D2 receptor competitive binding assay, [3H]-methylspiperone, membranes from CHO-K1 clonal cell line overexpressing D2 receptor; conditions: for Ki: 0.5 nM [3H]-methylspiperone, 2 h at 27 °C, mean ± SEM of three experiments, each in triplicate
T2 construct: purchased Perkin-Elmer (Boston, MA, USA) RBHD2CM400UA; host or cells: CHO-K1 clonal cell line
Method: To determine the binding of all compounds at D2 receptor, competitive binding assays were performed according to provider indications with some modifications. […] Radioactivity was counted as described before.

SERT = target: T3, SERT (Homo sapiens, UniProt P31645); assay: SERT competitive binding assay, [3H]-paroxetine, membranes from HEK-293 clonal cell line overexpressing SERT
T3 construct: purchased Perkin-Elmer (Boston, MA, USA) RBHSTM400UA; host or cells: HEK-293 clonal cell line
Method: To determine the binding of all compounds at SERT, competitive binding assays were performed according to previously reported procedures with some modifications. […] Control curve was performed with fluoxetine in the same experimental conditions. Non-specific binding was determined with 10 µM fluoxetine.
The IC50 and Ki values correspond to the results of three independent experiments, each in triplicate. All data are expressed as the mean ± SEM.

[1] = 2 nM [3H]-paroxetine, 1 h at 27 °C, mean ± SEM of three experiments, each in triplicate, read-out: Ki SERT
[2] = SERT, experimental values used for CoMFA/CoMSIA (Table S3), read-out: Exp. pKi (converted)

T2 sequence (P14416 whole entry): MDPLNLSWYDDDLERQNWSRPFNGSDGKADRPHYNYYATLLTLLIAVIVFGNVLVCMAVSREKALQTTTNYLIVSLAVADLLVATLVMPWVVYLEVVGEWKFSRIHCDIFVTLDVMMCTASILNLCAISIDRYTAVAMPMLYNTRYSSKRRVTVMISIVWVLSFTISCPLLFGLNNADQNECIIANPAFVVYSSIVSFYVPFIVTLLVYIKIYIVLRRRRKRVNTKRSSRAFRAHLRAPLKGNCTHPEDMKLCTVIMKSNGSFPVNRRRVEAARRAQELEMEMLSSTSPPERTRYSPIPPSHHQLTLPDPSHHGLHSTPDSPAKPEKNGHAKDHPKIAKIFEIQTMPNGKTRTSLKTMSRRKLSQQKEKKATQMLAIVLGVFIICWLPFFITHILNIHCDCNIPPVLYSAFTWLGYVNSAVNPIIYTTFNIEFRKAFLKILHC
T3 sequence (P31645 whole entry): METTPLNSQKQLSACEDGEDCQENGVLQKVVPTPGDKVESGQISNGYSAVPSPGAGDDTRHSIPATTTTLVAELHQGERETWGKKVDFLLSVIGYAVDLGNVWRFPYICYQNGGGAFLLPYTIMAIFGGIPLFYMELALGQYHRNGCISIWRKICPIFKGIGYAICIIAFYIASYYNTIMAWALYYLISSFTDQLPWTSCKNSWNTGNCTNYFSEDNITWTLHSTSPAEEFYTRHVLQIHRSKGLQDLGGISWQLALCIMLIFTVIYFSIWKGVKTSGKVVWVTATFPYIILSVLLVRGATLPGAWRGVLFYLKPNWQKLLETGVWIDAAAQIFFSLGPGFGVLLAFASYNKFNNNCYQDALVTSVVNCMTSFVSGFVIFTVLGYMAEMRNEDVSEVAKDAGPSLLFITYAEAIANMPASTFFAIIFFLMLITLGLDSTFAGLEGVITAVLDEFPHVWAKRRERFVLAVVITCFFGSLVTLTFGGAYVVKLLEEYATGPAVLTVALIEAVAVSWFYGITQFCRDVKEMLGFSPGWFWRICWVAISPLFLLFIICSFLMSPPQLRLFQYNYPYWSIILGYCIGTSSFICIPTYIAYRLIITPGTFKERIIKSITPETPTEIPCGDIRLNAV

| SMILES | melting point [°C] | inhibition at 100 µM (rat MAO-A) [%] | Ki (D2 receptor) [nM] | Ki (SERT; [1]) [nM] | Ki (SERT; [2]) [nM] | D2/SERT ratio (D2 receptor; ratio of Ki at D2 receptor to Ki at SERT) |
| --- | --- | --- | --- | --- | --- | --- |
| O=C(CN1CCN(CCCc2c[nH]c3ccccc23)CC1)N1CCOc2ccccc21 [Compound 7a, 1-(2,3-Dihydro-benzo[b][1,4]oxazin-4-yl)-2-{4-[3-(1H-3-indolyl)-propyl]-1-piperazinyl} ethanamide] | 124.3 to 125.8 | 27 | 4840 ± 68 | 307 ± 30.5 |  |  |
| O=C(CN1CCN(CCCc2c[nH]c3ccccc23)CC1)N1CCOc2cc(F)ccc21 [Compound 7b, 1-(7-Fluoro-2,3-dihydro-benzo[b][1,4]oxazin-4-yl)-2-{4-[3-(1H-3-indolyl)-propyl]-1-piperazinyl} ethanamide] | 124 to 125.3 | 43 | 4740 ± 131 | 181 ± 20 |  |  |
| O=C(CN1CCN(CCCc2c[nH]c3ccccc23)CC1)N1CCOc2ccc(F)cc21 [Compound 7c, 1-(6-Fluoro-2,3-dihydro-benzo[b][1,4]oxazin-4-yl)-2-{4-[3-(1H-3-indolyl)-propyl]-1-piperazinyl} ethanamide] | 123.8 to 125.1 | 40 | 2390 ± 163 | 68.8 ± 1.02 |  |  |
| O=C(CN1CCN(CCCc2c[nH]c3ccccc23)CC1)N1CCOc2ccc(Cl)cc21 [Compound 7d, 1-(6-Chloro-2,3-dihydro-benzo[b][1,4]oxazin-4-yl)-2-{4-[3-(1H-3-indolyl)-propyl]-1-piperazinyl} ethanamide] | 135.3 to 136.1 | 18 | 1260 ± 182 | 81.4 ± 4.97 |  |  |
| O=C(CN1CCN(CCCc2c[nH]c3ccccc23)CC1)N1CCOc2ccc(Br)cc21 [Compound 7e, 1-(6-Bromo-2,3-dihydro-benzo[b][1,4]oxazin-4-yl)-2-{4-[3-(1H-3-indolyl)-propyl]-1-piperazinyl} ethanamide] | 132.7 to 134.1 | 38 | 910 ± 263 | 36.6 ± 0.55 |  |  |
| COc1ccc2c(c1)N(C(=O)CN1CCN(CCCc3c[nH]c4ccccc34)CC1)CCO2 [Compound 7f, 1-(6-Methoxy-2,3-dihydro-benzo[b][1,4]oxazin-4-yl)-2-{4-[3-(1H-3-indolyl)-propyl]-1-piperazinyl} ethanamide] | 123.6 to 125.1 | 58 | 4410 ± 647 | 412 ± 57.9 |  |  |
| O=C(CN1CCN(CCCc2c[nH]c3ccc(F)cc23)CC1)N1CCOc2ccccc21 [Compound 7g, 1-(2,3-Dihydro-benzo[b][1,4]oxazin-4-yl)-2-{4-[3-(5-fluoro-1H-3-indolyl)-propyl]-1-piperazinyl} ethanamide] | 168.4 to 171.3 | 41 | 2320 ± 64 | 9.63 ± 0.31 |  |  |
| O=C(CN1CCN(CCCc2c[nH]c3ccc(F)cc23)CC1)N1CCOc2cc(F)ccc21 [Compound 7h, 1-(7-Fluoro-2,3-dihydro-benzo[b][1,4]oxazin-4-yl)-2-{4-[3-(5-fluoro-1H-3-indolyl)-propyl]-1-piperazinyl} ethanamide] | 168.1 to 169.9 | 0 | 2320 ± 163 | 7.61 ± 0.02 |  |  |
| O=C(CN1CCN(CCCc2c[nH]c3ccc(F)cc23)CC1)N1CCOc2ccc(F)cc21 [Compound 7i, 1-(6-Fluoro-2,3-dihydro-benzo[b][1,4]oxazin-4-yl)-2-{4-[3-(5-fluoro-1H-3-indolyl)-propyl]-1-piperazinyl} ethanamide] | 166.8 to 168.1 | 0 | 1680 ± 79 | 7.51 ± 0.12 |  |  |
| COc1ccc2c(c1)N(C(=O)CN1CCN(CCCc3c[nH]c4ccc(F)cc34)CC1)CCO2 [Compound 7l, 1-(6-Methoxy-2,3-dihydro-benzo[b][1,4]oxazin-4-yl)-2-{4-[3-(5-fluoro-1H-3-indolyl)-propyl]-1-piperazinyl} ethanamide] | 94.5 to 97.3 | 52 | 3320 ± 256 | 12.6 ± 1.52 |  |  |

Second part, the molecule after the results:

| melting point [°C] | inhibition at 100 µM (rat MAO-A) [%] | Ki (D2 receptor) [nM] | Ki (SERT; [1]) [nM] | Ki (SERT; [2]) [nM] | D2/SERT ratio (D2 receptor; ratio of Ki at D2 receptor to Ki at SERT) | SMILES |
| --- | --- | --- | --- | --- | --- | --- |
| 120.5 to 122.8 | 20 | 902 ± 4 | 12.3 ± 2.31 |  |  | O=C(CN1CCN(CCCc2c[nH]c3ccc(F)cc23)CC1)N1CCOc2ccc(Cl)cc21 [Compound 7j, 1-(6-Chloro-2,3-dihydro-benzo[b][1,4]oxazin-4-yl)-2-{4-[3-(5-fluoro-1H-3-indolyl)-propyl]-1-piperazinyl} ethanamide] |
| 102.8 to 103.9 | 20 | 1040 ± 232 | 5.63 ± 0.82 | 5.62 |  | O=C(CN1CCN(CCCc2c[nH]c3ccc(F)cc23)CC1)N1CCOc2ccc(Br)cc21 [Compound 7k, 1-(6-Bromo-2,3-dihydro-benzo[b][1,4]oxazin-4-yl)-2-{4-[3-(5-fluoro-1H-3-indolyl)-propyl]-1-piperazinyl} ethanamide] |
| 90.5 to 92.4 | 30 | 593 ± 62 | 50.2 ± 2.47 | 50.1 |  | O=C(CN1CCN(CCCc2c[nH]c3ccc(Br)cc23)CC1)N1CCOc2ccccc21 [Compound 7m, 1-(2,3-Dihydro-benzo[b][1,4]oxazin-4-yl)-2-{4-[3-(5-bromo-1H-3-indolyl)-propyl]-1-piperazinyl} ethanamide] |
| 96.1 to 98.1 | 23 | 307 ± 6 | 84.4 |  | 3.6 | O=C(CN1CCN(CCCc2c[nH]c3ccc(Br)cc23)CC1)N1CCOc2cc(F)ccc21 [Compound 7n, 1-(7-Fluoro-2,3-dihydro-benzo[b][1,4]oxazin-4-yl)-2-{4-[3-(5-bromo-1H-3-indolyl)-propyl]-1-piperazinyl} ethanamide] |
| 97.2 to 98.8 | 26 | 1150 ± 227 |  | 34.9 |  | O=C(CN1CCN(CCCc2c[nH]c3ccc(Br)cc23)CC1)N1CCOc2ccc(F)cc21 [Compound 7o, 1-(6-Fluoro-2,3-dihydro-benzo[b][1,4]oxazin-4-yl)-2-{4-[3-(5-bromo-1H-3-indolyl)-propyl]-1-piperazinyl} ethanamide] |
| 92.2 to 93.9 | 42 | 3100 ± 42 | 23.8 ± 0.46 |  |  | O=C(CN1CCN(CCCc2c[nH]c3ccc(F)cc23)CC1)Nc1cc(C(=O)NCCN2CCOCC2)ccc1F [Compound 13b, 4-Fluoro-3-(2-{4-[3-(5-fluor-1H-3-indolyl)-propyl]-1-piperazinyl}-acetylamino)-N-(2-morpholin-4-yl-ethyl) Benzamide] |
| 91.8 to 93.2 | 28 | 593 ± 30.2 | 6.83 ± 0.19 |  |  | O=C(CN1CCN(CCCc2c[nH]c3ccc(F)cc23)CC1)Nc1ccc(F)c(C(=O)NCCN2CCOCC2)c1 [Compound 13c, 2-Fluoro-5-(2-{4-[3-(5-fluor-1H-3-indolyl)-propyl]-1-piperazinyl}-acetylamino)-N-(2-morpholin-4-yl-ethyl) Benzamide] |
| 92.1 to 93.8 | 39 | 5619 ± 31 | 223 ± 16.4 |  |  | O=C(CN1CCN(CCCc2c[nH]c3ccc(Br)cc23)CC1)Nc1cc(F)ccc1C(=O)NCCN1CCOCC1 [Compound 13e, 4-Fluoro-2-(2-{4-[3-(5-bromo-1H-3-indolyl)-propyl]-1-piperazinyl}-acetylamino)-N-(2-morpholin-4-yl-ethyl) Benzamide] |
| 85.2 to 86.8 | 39 | 1830 ± 33 | 58.8 ± 1.14 |  |  | O=C(CN1CCN(CCCc2c[nH]c3ccc(Br)cc23)CC1)Nc1cc(C(=O)NCCN2CCOCC2)ccc1F [Compound 13f, 4-Fluoro-3-(2-{4-[3-(5-bromo-1H-3-indolyl)-propyl]-1-piperazinyl}-acetylamino)-N-(2-morpholin-4-yl-ethyl) Benzamide] |
| 73.2 to 74.5 | 16 | 765 ± 16 | 12.6 ± 0.42 |  |  | O=C(CN1CCN(CCCc2c[nH]c3ccc(Br)cc23)CC1)Nc1ccc(F)c(C(=O)NCCN2CCOCC2)c1 [Compound 13g, 2-Fluoro-5-(2-{4-[3-(5-bromo-1H-3-indolyl)-propyl]-1-piperazinyl}-acetylamino)-N-(2-morpholin-4-yl-ethyl) Benzamide] |
